Reference: PMC9655618 (Cancers, 2022)

Legend:
[1] = system: T47D cells; assay: MTT cell viability assay; type: cell-based, human; conditions: Homo sapiens, T47D, 72 h, 10%FBS growth media
Protocol: Straightforward, the tetrazolium salt 3-(4,5-methyltiazol-2yl-)-2,5diphenyl-tetrazolium bromide (MTT) (Applichen, Darmstadt, Germany) was added to cells, incubated for 2–4 h at 37 °C, and lysed in 10% SDS. The mitochondrial metabolization of the tetrazolium salt was determined by the analysis of the optical density at 595 nm, measured with the iMark microplate Reader (Bio–Rad, Irvine, CA, USA).

[2] = target: T1, native ERα from rat uterine cytosol (Rattus norvegicus, UniProt P06211); assay: Radiolabeled E2 competitor binding assay in rat uterine cytosol (RUC)
T1 construct: from tissue; host or cells: uterine cytosol of ovariectomized Sprague-Dawley rats
Protocol: Animal studies were approved by the Bioethics Committee of the University of Las Palmas de Gran Canaria (OEBA-ULPGC 40/2020), and the experiments were carried out according to OECD guidelines (ER-RVC OPPTS 890.1250). ER was obtained from rat uterine cytosol (RUC). Briefly, RUC was extracted from 8–12 weeks old Sprague-Dawley rats 13–16 days after they were ovariectomized under ketamine (75 mg/kg)/medetomidine (1 mg/kg) anesthesia. Uteri were removed, trimmed free of adipose tissue, blotted, weighed and frozen on liquid nitrogen until RUC isolation. Then, 100 mg of uteri per ml of ice-cold TEGM buffer (10 mM Tris, 1.5 mM EDTA, 10% glycerol, 3 mM MgCl2, 1 mM PMSF, 1 mM DTT, pH 7.4) were homogenized by using a Polytron PT3000 homogenizer (Kinematica, Malters, Switzerland) at 15,000 rpm for 3 bursts of 30″ each. The homogenate was sedimented, and the supernatant was centrifuged at 105,000 g for 60 min at 4 °C to obtain RUC. Protein concentration was determined by Bradford´s assay (Bio-Rad, Irvine, CA, USA), and 2 mg/mL of RUC was taken from all samples [35]. […] Then, 200 μL of DCC suspension (0.8% charcoal: 0.08% dextran; w:w) in cold TE buffer was added to each tube and incubated for 10 min before DCC was centrifuged at 3000 g for 10 min at 4 °C. Supernatant (200 μL) was obtained to measure total and non-specific bound radioactivity in TRICARB 4810 LSC counter (PerkinElmer). […]

[3] = system: T47D cells; assay: Cell cycle analysis by flow cytometry; type: cell-based, human; conditions: 5 μM; 48h
Protocol: For cell cycle studies, unsynchronized T47D cells were seeded at 250,000 cells/well in RPMI (Biowest, Nuaillé, France) 10% FBS medium supplemented with L-glutamine (2 mM), HEPES (10 mM), sodium pyruvate (1 mM) and PEST. […] Cells were then washed in ice-cold PBS and fixed in cold 70% ethanol at −20 °C overnight. Then, the cell pellet was resuspended in FACs buffer (2 mM EDTA, 2% FBS in PBS) and incubated with Ki67-APC antibody (Miltenyi Biotec, Auburn, CA, USA) and DAPI (4′,6-diamidino-2-phenylindole; Sigma-Aldrich) for 20 min at room temperature. Finally, cells were washed and resuspended with FACs Buffer for cell cycle analyses. For apoptosis studies, an Annexin V-FITC Apoptosis Kit (Miltenyi Biotec) was used. Briefly, treated cells were collected in 100 μL of ice-cold AnnexinV binding buffer (10 mM HEPES pH 7.4, 140 mM NaCl, 2.5 mM CaCl2) containing 10 μL of Annexin-V FITC and incubated for 15 min at room temperature. After that, cells were washed with 1 mL binding buffer, sedimented at 300× g 10 min, and resuspended with 500 μL binding buffer containing 5 μL of propidium iodide (PI; 100 μg/mL) prior to acquisition in MACSQuant10 cytometer (Miltenyi Biotec) where 10,000 or 20,000 events were used for cell cycle and apoptosis analysis, respectively.

[4] = system: polyubiquitinated protein level in T47D cells; assay: Immunoblotting; type: cell-based, human; conditions: from 24 h to 72 h
Protocol: Then, they were washed with ice-cold PBS supplemented with 1 mM ortovanadate and lysed with RIPA buffer containing protease and phosphatase inhibitors (Thermo Fisher Scientific, Waltham, MA, USA). Equal protein amounts were analyzed by SDS–PAGE, and transferred to nitrocellulose membranes (Thermo Fisher Scientific, Waltham, MA, USA), blocked with Tris-buffered saline/0.05% Tween 20 (TBS-T) containing 5% blotto (Merck, Darmstadt, Germany) or 5% BSA for total and phosphorylated proteins, respectively. Immunoblotting was carried out with mouse anti-ERα F-10 (Santa Cruz Biotech, Santa Cruz, CA, USA), rabbit total anti-STAT5 (Cell Signaling Technology, Leiden, The Netherlands) or mouse anti-polyubiquitin (EMD Millipore, Burlington, MA, USA). After washing, membranes were incubated with horseradish peroxidase-conjugated secondary antibodies (Bio-Rad) for 1 h at room temperature. The β-actin antibody (Santa Cruz Biotech, CA, USA) was used as the loading control. Finally, protein bands were visualized by using Clarity™ Western ECL Substrate (Bio-Rad) in the ChemiDoc XRS system (Bio-Rad) and were analyzed with Quantity One software (Bio-Rad).

[5] = system: STAT3 transcriptional activity in HEK293 cells; assay: IL6-induced STAT3 transcriptional activity, Renilla reporter HEK-293 cells; conditions: 4 h pretreatment, hIL6 10 ng/ml 16 h
[6] = system: ERα-mediated transcription (3xERE-luciferase), T47D-KBluc cells; assay: ER-dependent transcriptional activity, 3xERE-luciferase reporter in T47D-KBluc cells; conditions: until dropping to 20% Emax
[7] = system: STAT5 transcriptional activity in Ba/F3 cells; assay: IL3-stimulated STAT5 transcriptional activity, Renilla reporter Ba/F3 cells; conditions: 4 h pretreatment, mIL3 30 ng/ml 16 h

T1 sequence (P06211 whole entry): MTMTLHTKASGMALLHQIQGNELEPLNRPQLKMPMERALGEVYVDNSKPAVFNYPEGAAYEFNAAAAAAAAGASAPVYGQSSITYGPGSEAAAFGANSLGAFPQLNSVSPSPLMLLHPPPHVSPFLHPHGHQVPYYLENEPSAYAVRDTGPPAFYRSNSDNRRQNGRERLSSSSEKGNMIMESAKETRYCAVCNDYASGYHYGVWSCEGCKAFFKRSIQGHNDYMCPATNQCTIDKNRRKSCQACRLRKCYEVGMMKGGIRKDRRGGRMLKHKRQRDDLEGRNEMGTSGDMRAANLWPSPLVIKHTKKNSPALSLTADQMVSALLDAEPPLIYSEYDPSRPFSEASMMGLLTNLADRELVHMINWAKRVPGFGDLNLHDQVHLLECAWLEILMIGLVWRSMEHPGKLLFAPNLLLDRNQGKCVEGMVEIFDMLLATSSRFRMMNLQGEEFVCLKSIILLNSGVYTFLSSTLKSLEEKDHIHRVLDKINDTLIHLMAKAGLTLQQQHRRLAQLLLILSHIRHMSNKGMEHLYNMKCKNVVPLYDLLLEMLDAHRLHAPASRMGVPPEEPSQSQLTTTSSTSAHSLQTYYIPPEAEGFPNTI

O=C1C(c2ccc([N+](=O)[O-])cc2)=CC(O)(c2ccccc2)N1Cc1ccccc1 (stereo not drawn) [compound 35, 1-benzyl-5-hydroxy-3-(4-nitrophenyl)-5-phenyl-1H-pyrrol-2(5H)-one]
IC50 [1]: 5.31 ± 0.47 µM
IC50 [2]: 76.6 ± 1.3 µM
G2/S/M cells [3]: 16.52%
effect on polyubiquitinated protein level [4]: significantly increased polyubiquitinated protein level
IC50, IL6-induced STAT3 transcriptional activity [5]: inactive
effect on E2-induced luciferase activity [6]: reduced E2-induced luciferase activity

Cc1ccc(C2=CC(O)(c3ccccc3)N(Cc3ccccc3)C2=O)cc1C (stereo not drawn) [compound 32, 1-benzyl-3-(3,4-dimethylphenyl)-5-hydroxy-5-phenyl-1H-pyrrol-2(5H)-one]
IC50 [1]: 10.6 ± 0.58 µM
IC50 [2]: 128.4 ± 1.25 µM
IC50, IL3-stimulated STAT5 transcriptional activity [7]: no activity
